# Measured values taken from article PMC8989888, “Development of optimized drug-like small molecule inhibitors of the SARS-CoV-2 3CL protease for treatment of COVID-19” (Nature Communications, 2022).
# Values joined by “and” are separate entries in the source; they are usually repeats but may differ in a detail not shown here. Equal entries are not always repeated. Where two headings read alike, the source gives them in different places.
# Columns and labels:
# [1] = target: T1, SARS-CoV-2 3CL protease (Severe acute respiratory syndrome coronavirus 2, UniProt P0DTD1); experiment: biochemical
# [2] = target: T1, SARS-CoV-2 3CL protease; experiment: biochemical; remark: listed apart in the source
# [3] = target: ACE1 (Homo sapiens, UniProt P12821); experiment: biochemical
# ACE1, sequence (P12821 30-1261): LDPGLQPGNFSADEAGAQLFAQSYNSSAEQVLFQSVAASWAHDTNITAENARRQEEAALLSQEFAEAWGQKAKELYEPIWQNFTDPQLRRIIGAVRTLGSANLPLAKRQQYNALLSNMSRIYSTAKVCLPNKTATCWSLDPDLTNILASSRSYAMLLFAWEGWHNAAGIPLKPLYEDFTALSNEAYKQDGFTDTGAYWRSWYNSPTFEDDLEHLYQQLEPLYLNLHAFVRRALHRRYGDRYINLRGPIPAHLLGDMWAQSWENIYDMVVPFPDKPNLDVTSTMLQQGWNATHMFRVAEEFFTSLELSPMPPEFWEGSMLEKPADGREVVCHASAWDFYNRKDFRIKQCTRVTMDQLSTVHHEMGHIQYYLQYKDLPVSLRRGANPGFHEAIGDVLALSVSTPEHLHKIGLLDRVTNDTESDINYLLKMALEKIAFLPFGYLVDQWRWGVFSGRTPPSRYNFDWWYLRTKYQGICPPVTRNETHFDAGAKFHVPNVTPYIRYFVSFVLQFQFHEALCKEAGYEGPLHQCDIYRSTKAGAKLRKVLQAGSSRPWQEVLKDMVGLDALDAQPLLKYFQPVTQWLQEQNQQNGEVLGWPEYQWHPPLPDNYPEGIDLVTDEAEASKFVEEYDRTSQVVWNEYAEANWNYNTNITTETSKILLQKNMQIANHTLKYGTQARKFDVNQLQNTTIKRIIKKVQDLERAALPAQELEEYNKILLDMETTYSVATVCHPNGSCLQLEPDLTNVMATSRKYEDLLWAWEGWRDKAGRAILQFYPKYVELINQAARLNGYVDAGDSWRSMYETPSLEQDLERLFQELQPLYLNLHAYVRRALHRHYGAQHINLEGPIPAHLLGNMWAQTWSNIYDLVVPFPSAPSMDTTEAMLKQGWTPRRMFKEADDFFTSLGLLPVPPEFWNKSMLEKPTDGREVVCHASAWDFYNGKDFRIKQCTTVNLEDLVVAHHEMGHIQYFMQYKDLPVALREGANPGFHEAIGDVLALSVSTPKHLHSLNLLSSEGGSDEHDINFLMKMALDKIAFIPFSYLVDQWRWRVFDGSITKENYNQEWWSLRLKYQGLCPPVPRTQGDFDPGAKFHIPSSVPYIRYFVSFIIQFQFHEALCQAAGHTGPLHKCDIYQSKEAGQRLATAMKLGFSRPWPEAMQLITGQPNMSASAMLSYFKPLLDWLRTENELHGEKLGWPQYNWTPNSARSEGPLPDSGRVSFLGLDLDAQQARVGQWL
# [4] = target: ACE2 (Homo sapiens, UniProt Q9BYF1); experiment: biochemical
# ACE2, sequence (Q9BYF1 18-740): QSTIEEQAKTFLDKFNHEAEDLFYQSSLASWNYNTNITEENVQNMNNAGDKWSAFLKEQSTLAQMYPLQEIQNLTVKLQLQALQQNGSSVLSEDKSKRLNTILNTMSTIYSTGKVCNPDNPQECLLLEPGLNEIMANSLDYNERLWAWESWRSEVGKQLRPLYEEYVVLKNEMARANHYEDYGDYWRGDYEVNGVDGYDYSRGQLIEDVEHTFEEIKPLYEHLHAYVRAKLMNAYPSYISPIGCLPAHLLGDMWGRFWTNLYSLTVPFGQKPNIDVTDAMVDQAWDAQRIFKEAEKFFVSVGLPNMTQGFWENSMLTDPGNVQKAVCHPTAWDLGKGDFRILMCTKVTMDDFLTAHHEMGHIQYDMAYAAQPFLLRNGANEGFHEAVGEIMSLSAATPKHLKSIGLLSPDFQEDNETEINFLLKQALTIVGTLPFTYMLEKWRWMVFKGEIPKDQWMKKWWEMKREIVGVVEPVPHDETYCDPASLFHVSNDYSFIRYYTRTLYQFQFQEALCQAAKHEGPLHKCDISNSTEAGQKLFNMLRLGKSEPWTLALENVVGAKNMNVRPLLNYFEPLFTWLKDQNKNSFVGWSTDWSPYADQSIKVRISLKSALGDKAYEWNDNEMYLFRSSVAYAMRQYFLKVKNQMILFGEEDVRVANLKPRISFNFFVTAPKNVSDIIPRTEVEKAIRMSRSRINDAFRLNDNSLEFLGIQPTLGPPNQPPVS
# [5] = target: Caspase 8 (Homo sapiens, UniProt Q14790); experiment: biochemical
# Caspase 8, sequence (Q14790 217-479): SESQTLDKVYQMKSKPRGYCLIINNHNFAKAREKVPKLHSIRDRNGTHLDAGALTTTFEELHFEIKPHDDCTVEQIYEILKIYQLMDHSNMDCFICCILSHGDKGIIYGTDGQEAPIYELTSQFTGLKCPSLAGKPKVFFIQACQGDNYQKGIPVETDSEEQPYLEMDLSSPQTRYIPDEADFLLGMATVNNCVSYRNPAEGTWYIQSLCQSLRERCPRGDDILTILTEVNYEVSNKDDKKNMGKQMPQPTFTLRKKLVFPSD
# [6] = target: Cathepsin B (Homo sapiens, UniProt P07858); experiment: biochemical
# [7] = target: T2, Cathepsin L (Homo sapiens, UniProt P07711); experiment: Protease selectivity panel: Cathepsin L; type: biochemical
# T2 construct: Human liver; from tissue; host or cells: human liver
# T2 sequence (P07711 114-333): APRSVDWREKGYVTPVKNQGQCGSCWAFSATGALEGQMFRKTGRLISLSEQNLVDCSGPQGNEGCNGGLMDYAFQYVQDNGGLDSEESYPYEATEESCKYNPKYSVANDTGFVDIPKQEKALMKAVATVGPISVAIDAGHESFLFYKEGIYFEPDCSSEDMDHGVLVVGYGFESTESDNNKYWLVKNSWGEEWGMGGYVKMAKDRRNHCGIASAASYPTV
# [8] = target: Elastase (Homo sapiens, UniProt P08246); experiment: biochemical
# Elastase, sequence (P08246 30-267): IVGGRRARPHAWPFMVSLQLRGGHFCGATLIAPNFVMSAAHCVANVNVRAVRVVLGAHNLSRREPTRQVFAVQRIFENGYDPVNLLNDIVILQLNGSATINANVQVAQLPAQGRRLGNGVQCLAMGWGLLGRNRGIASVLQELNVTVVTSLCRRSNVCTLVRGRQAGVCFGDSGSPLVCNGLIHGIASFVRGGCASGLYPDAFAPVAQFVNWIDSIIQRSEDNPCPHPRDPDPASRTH
# [9] = target: Factor Xa (Homo sapiens, UniProt P00742); experiment: biochemical
# Factor Xa, sequence (P00742 235-488): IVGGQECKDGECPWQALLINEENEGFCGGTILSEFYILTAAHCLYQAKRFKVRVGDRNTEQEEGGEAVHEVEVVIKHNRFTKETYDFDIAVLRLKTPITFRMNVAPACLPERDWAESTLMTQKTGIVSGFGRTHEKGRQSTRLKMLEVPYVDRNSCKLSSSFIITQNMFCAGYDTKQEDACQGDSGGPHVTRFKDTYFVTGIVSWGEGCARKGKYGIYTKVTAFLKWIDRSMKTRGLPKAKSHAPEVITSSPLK
# Factor Xa, sequence (P00742 41-179): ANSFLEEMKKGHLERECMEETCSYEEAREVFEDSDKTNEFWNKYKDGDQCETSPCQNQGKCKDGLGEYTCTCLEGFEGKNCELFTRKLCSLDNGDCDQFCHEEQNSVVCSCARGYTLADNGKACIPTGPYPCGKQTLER
# [10] = target: Furin (Homo sapiens, UniProt P09958); experiment: biochemical
# Furin, sequence (P09958 108-715): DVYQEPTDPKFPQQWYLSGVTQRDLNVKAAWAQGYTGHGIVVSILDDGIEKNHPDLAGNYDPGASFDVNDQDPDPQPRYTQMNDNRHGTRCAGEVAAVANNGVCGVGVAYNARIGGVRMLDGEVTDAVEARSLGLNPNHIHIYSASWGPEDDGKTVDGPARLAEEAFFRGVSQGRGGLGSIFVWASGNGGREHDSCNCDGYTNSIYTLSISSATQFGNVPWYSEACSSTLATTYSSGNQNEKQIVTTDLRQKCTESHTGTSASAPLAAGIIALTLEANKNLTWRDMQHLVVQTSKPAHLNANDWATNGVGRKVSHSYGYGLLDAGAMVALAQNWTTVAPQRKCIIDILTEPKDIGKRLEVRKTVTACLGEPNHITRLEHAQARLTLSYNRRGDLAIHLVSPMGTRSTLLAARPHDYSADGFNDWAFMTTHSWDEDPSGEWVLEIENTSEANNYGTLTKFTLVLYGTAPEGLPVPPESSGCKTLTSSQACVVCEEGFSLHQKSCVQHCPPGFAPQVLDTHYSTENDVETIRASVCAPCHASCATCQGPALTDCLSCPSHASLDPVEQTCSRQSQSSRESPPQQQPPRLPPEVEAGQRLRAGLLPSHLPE
# [11] = target: MMP 1 (Homo sapiens, UniProt P03956); experiment: biochemical
# MMP 1, sequence (P03956 100-268): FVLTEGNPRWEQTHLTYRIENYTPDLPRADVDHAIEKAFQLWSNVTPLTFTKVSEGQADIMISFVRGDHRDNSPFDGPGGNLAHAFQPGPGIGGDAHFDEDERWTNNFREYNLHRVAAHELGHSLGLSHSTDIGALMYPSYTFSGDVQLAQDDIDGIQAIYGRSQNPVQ
# [12] = target: PLpro (Severe acute respiratory syndrome coronavirus 2, UniProt P0DTD1); experiment: Protease selectivity panel: PLpro; type: biochemical; conditions: SARS-CoV-2 recombinant
# [13] = target: Thrombin a (Homo sapiens, UniProt P00734); experiment: biochemical
# [14] = target: TMPRSS2 (Homo sapiens, UniProt O15393); experiment: biochemical
# TMPRSS2, sequence (O15393 106-492): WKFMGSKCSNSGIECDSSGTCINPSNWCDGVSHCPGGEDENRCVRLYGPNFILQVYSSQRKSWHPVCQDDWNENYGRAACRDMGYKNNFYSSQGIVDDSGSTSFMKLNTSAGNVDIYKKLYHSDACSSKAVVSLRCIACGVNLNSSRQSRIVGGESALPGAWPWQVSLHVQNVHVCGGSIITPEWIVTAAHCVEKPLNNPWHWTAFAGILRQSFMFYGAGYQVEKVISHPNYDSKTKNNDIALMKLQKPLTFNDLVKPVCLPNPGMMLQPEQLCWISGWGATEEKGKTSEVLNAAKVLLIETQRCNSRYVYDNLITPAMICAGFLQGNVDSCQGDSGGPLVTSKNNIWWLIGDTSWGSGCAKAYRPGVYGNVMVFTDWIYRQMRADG
# [15] = target: Trypsin (Bos taurus, UniProt P00760); experiment: Protease selectivity panel: Trypsin; type: biochemical; conditions: Bovine pancreas
# Trypsin, sequence (P00760 24-246): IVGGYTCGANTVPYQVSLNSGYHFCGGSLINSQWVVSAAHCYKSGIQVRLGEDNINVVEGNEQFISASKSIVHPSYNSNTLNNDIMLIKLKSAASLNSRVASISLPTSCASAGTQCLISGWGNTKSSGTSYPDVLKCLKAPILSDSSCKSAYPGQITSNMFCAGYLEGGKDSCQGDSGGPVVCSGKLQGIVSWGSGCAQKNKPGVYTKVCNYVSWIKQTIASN
# [16] = target: Urokinase (Homo sapiens, UniProt P00749); experiment: biochemical
# [17] = tested on: SARS-CoV-2; experiment: microbe, parasite or virus in culture; type: cell-based
# [18] = tested on: SARS-CoV-2; experiment: microbe, parasite or virus in culture; type: cell-based; conditions: for EC50: Severe acute respiratory syndrome coronavirus 2, 24 h, read-out: SARS-CoV-2 Huh-7ACE2 EC50
# [19] = tested on: SARS-CoV-2; experiment: microbe, parasite or virus in culture; type: cell-based; conditions: Severe acute respiratory syndrome coronavirus 2, read-out: SARS-CoV-2 EC50
# [20] = tested on: SARS coronavirus (strain: Urbani); experiment: organism not typed; type: cell-based, SARS-CoV
# [21] = tested on: Human coronavirus alpha (strain: 229E); experiment: organism not typed; type: cell-based, HCoV-229E; conditions: Huh-7, read-out: EC50, human coronavirus 229E
# [22] = tested on: Human coronavirus beta (strain: OC43); experiment: organism not typed; type: cell-based, HCoV-OC43; conditions: Huh-7, read-out: EC50, human coronavirus OC43
# [23] = tested on: Influenza A H1N1 (strain: California/07/2009); experiment: microbe, parasite or virus in culture; type: cell-based
# [24] = target: SARS-CoV-2; experiment: cell-based
# [25] = in vitro
# [26] = tested on: SARS-CoV-2; experiment: microbe, parasite or virus in culture; conditions: Severe acute respiratory syndrome coronavirus 2, Caco-2, 72 h, read-out: SARS-CoV-2 Caco-2 EC90
# [27] = target: Cathepsin K (Homo sapiens, UniProt P43235); experiment: Protease selectivity panel: Cathepsin K
# Cathepsin K, sequence (P43235 115-329): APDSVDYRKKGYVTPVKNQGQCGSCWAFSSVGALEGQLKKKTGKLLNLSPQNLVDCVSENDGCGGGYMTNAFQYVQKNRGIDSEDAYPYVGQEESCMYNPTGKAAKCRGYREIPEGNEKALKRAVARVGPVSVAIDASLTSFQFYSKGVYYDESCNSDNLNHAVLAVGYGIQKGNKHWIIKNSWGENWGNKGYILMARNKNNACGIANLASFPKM
# [28] = target: Cathepsin S (Homo sapiens, UniProt P25774); experiment: Protease selectivity panel: Cathepsin S
# Cathepsin S, sequence (P25774 115-331): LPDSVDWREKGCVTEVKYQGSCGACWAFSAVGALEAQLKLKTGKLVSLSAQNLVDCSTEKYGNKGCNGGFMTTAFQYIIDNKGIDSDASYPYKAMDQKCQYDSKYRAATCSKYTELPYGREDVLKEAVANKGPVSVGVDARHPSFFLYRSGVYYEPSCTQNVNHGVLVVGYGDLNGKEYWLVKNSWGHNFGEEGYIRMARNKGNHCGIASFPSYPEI
# [29] = tested on: human chymotrypsin; experiment: Chymotrypsin activity assay (Panc-1 cell lysate); type: biochemical
# [30] = target: T2, Cathepsin L; conditions: read-out: IC50 on human cathepsin L; cited from earlier work
# [31] = in vitro; conditions: human, plasma
# [32] = in vitro; conditions: CD-1, mouse, plasma
# [33] = in vitro; conditions: human, microsomes, pH 7.4
# [34] = in vitro; conditions: CD-1, mouse, microsomes, pH 7.4
# [35] = physchem; conditions: aqueous buffer, kinetic from dmso stock
# [36] = Severe acute respiratory syndrome coronavirus 2, Vero C1008, read-out: SARS-CoV-2 Vero E6 EC50
structure (smiles),measurement,setting,value
CC(C)C[C@H](NC(=O)OCc1ccccc1Cl)C(=O)N[C@@H](C[C@@H]1CCNC1=O)C(O)S(=O)(=O)O (stereo partly drawn) [EB54],IC50,"[1]; 20 nM protease, read-out: SARS-CoV-2 3CLpro IC50",29 nM
same,"normalized activity, dose-response curve (Figure S16)",[1]; Concentration of inhibitor (nM) 0.19382,97.3415 and 94.0287
same,"normalized activity, dose-response curve (Figure S16)",[1]; Concentration of inhibitor (nM) 0.49485,94.642 and 94.4552
same,"normalized activity, dose-response curve (Figure S16)",[1]; Concentration of inhibitor (nM) 0.79588,92.0244 and 86.0411
same,"normalized activity, dose-response curve (Figure S16)",[1]; Concentration of inhibitor (nM) 1.09691,76.1141 and 67.8169
same,"normalized activity, dose-response curve (Figure S16)",[1]; Concentration of inhibitor (nM) 1.39794,59.5493 and 51.609
same,"normalized activity, dose-response curve (Figure S16)",[1]; Concentration of inhibitor (nM) 1.69897,35.2953 and 26.9095
same,"normalized activity, dose-response curve (Figure S16)",[1]; Concentration of inhibitor (nM) 2.30103,1.552 and 1.745
same,"normalized activity, dose-response curve (Figure S16)",[1]; Concentration of inhibitor (nM) 2.60206,1.143 and 0.9691
same,"normalized activity, dose-response curve (Figure S16)",[1]; Concentration of inhibitor (nM) -0.10721,100.286 and 100.194
same,"normalized activity, dose-response curve (Figure S16)",[1]; Concentration of inhibitor (nM) -0.40824,100
same,"observed inactivation rate vs compound concentration (Figure S19, replicate values)",[2],0.0534 and -0.00333 and 0.0463 and 0.0575 and 0.0117 and 0.0408 and 0.0199 and 0.0198 and 0.0352 and 0.0468 and 0.0351 and 0.0076
same,kinact/KI,[2]; read-out: SARS-CoV-2 3CLpro kinact/KI,88300 M⁻¹ s⁻¹
same,IC50,[3],> 100000 nM
same,IC50,[4],> 100000 nM
same,IC50,[5],52000 nM
same,IC50,[6],350 nM
same,IC50,"[7]; Human liver, substrate 1 (Z-FR-AMC), […] Cathepsin L, read-out: IC50",1 nM
same,IC50,"[7]; Human liver, substrate 2 (MCA-PLGL-Dap(Dnp)-AR-NH2), 0.5 nM Cathepsin L, read-out: IC50",6 nM
same,IC50,[7]; read-out: IC50 on human cathepsin L,1 nM
same,IC50,[8],> 100000 nM
same,IC50,[9],> 100000 nM
same,IC50,[10],> 100000 nM
same,IC50,[11],> 100000 nM
same,IC50,[12],> 100000 nM
same,IC50,[13],> 100000 nM
same,IC50,[14],> 100000 nM
same,IC50,[15],> 100000 nM
same,IC50,[16],> 100000 nM
same,EC50,[17]; [36],2000 nM
same,"inhibition of SARS-CoV-2 (Figure s17b dose-response, replicate values)",[18],99.8698 and 98.0961 and 101.644 and 87.6327 and 101.522 and 73.7431 and 78.1084 and 77.7143 and 78.5024 and 57.3714 and 60.2928 and 54.45 and 31.9222 and 32.9312 and 30.9133 and 24.3408 and 28.9565 and 19.7251 and 10.4228 and 9.535 and 11.3102
same,EC50,[18],5 nM
same,EC50,[19],28 nM
same,EC50,"[20]; Vero 76, read-out: SARS-CoV Vero 76 EC50",< 3000 nM
same,EC50,[20]; read-out: SARS-CoV Vero 76 EC50,2400 nM
same,EC50,[21],< 100 nM
same,EC50,[22],< 100 nM
same,effect on replication of Influenza H1N1 (in words),[23],no effect was observed
same,EC50,"[23]; Influenza A virus, H1N1, MDCK, read-out: Influenza A (H1N1) MDCK EC50",> 100000 nM
same,EC50,[24],1200 nM
same,CC50,[25],> 100000 nM
same,EC90,[26],190 nM
same,IC50,[27],20 nM
same,IC50,[28],6 nM
"CC(C)CC(NC(=O)OCc1ccccc1)C(=O)NC(CC1CCNC1=O)C(O)S(=O)(=O)O (stereo not drawn) [GC376, reference compound]",Normalized chymotrypsin activity,[29],1.05 and 0.8698 and 0.9664
same,Protease activity in cell lysate normalised to DMSO (Figure S22D),[29],1.05 and 0.8698 and 0.9664
same,EC50,"[17]; Severe acute respiratory syndrome coronavirus 2, Vero C1008, 72 h, read-out: EC50, inhibition of SARS-CoV-2 viral replication",6000 nM
same,EC50,[17]; [36],9000 nM
same,EC50,[18],51 nM
same,EC50,[19],146 nM
same,concentrations at which turbidity was observed,,25000 to 200000 µM
same,IC50,[30],0.33 nM
same,half-life,[31],> 4 h
same,half-life,[32],> 4 h
same,half-life,[33],> 1.33 h
same,half-life,[34],> 1.33 h
same,solubility,[35],≤ 1000 µM
